Reference: ChEMBL document CHEMBL2380242, “Discovery of novel orally bioavailable GPR40 agonists” (Bioorg Med Chem Lett, 2013)
Calls of active or inactive are those of the source. The rule behind the calls is not given here.

Tests used:
[1] = target: T1, Free fatty acid receptor 1 (Homo sapiens, UniProt O14842); assay: Agonist activity at human GPR40 transfected in CHO cells by calcium flux assay relative to TAK-875; type: functional, cell-based
[2] = target: T1, Free fatty acid receptor 1; assay: Agonist activity at human GPR40 transfected in CHO cells by calcium flux assay; type: functional, cell-based
[3] = target: Free fatty acid receptor 1 (Rattus norvegicus) (UniProt Q8K3T4); assay: Agonist activity at GPR40 in rat INS-1 cells assessed as glucose-stimulated insulin secretion relative to TAK-875; type: cell-based; settings: INS1
Sequence of Free fatty acid receptor 1 (Rattus norvegicus) (Q8K3T4 whole entry): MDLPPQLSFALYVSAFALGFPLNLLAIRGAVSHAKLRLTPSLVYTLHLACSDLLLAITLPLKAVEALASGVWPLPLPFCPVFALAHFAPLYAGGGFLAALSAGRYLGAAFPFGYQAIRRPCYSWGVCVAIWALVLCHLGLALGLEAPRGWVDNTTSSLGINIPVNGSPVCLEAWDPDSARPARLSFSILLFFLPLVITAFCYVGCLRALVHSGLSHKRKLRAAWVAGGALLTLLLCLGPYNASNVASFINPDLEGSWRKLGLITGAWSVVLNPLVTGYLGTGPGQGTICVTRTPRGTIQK

[4] = Cmax in rat at 5 mg/kg, po; type: ADME, organism-based; set-up: dose 5 mg/kg, route oral; settings: in vivo
[5] = AUC in rat at 5 mg/kg, po; type: ADME, organism-based; set-up: dose 5 mg/kg, route oral; settings: plasma
[6] = Half life in rat at 5 mg/kg, po; type: ADME, organism-based; set-up: dose 5 mg/kg, route oral; settings: in vivo
Rattus norvegicus = assay: Volume of distribution in rat at 5 mg/kg, po; type: ADME, organism-based; set-up: dose 5 mg/kg, route oral; settings: in vivo
[7] = Plasma clearance in rat at 5 mg/kg, po; type: ADME, organism-based; set-up: dose 5 mg/kg, route oral
Mus musculus = assay: Antidiabetic activity in high fat feasted ICR mouse assessed as inhibition of blood glucose excursion at 50 mg/kg, po administered 15 mins prior to dextrose challenge measured for 120 mins by OGTT relative to control; type: functional
[8] = target: T2, Free fatty acid receptor 2 (Homo sapiens) (UniProt O15552); assay: Agonist activity at GPR43 (unknown origin) up to 10 uM
T2 sequence (whole entry): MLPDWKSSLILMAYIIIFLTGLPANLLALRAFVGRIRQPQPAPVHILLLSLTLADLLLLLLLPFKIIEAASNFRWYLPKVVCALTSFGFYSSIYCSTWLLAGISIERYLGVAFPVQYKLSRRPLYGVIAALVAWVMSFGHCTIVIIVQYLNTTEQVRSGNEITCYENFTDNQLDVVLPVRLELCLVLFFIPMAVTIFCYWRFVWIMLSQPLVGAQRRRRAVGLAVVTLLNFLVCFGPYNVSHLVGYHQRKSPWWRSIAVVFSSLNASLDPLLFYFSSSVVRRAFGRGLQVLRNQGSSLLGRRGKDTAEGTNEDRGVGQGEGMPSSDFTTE

[9] = target: T3, Free fatty acid receptor 3 (Homo sapiens) (UniProt O14843); assay: Agonist activity at GPR41 (unknown origin) up to 10 uM
T3 sequence (whole entry): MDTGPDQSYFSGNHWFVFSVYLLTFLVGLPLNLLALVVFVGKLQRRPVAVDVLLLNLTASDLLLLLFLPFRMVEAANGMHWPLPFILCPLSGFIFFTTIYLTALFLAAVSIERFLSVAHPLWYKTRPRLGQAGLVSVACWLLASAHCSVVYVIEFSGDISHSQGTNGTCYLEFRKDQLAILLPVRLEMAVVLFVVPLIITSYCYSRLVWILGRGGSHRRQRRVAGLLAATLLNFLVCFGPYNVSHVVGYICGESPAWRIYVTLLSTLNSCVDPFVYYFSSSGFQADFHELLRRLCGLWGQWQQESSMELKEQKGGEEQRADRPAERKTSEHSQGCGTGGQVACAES

Rhesus monkey [10] = assay: Antidiabetic activity in obese type 2 diabetic rhesus monkey model assessed as inhibition of blood glucose excursion at 6 mg/kg, po administered 1 to 2 hrs prior to dextrose challenge measured for 120 mins by IVGTT relative to control; type: functional; settings: Macaca mulatta
Rhesus monkey [11] = assay: Antidiabetic activity in obese type 2 diabetic rhesus monkey model assessed as inhibition of blood glucose excursion at 20 mg/kg, po administered 1 to 2 hrs prior to dextrose challenge measured for 120 mins by IVGTT relative to control; type: functional; settings: Macaca mulatta
Rhesus monkey [12] = assay: Antidiabetic activity in obese type 2 diabetic rhesus monkey model assessed as inhibition of blood glucose excursion at 6 mg/kg, po administered 1 to 2 hrs prior to dextrose challenge measured for 60 mins by IVGTT relative to control; type: functional; settings: Macaca mulatta
Rhesus monkey [13] = assay: Antidiabetic activity in obese type 2 diabetic rhesus monkey model assessed as inhibition of blood glucose excursion at 20 mg/kg, po administered 1 to 2 hrs prior to dextrose challenge measured for 60 mins by IVGTT relative to control; type: functional; settings: Macaca mulatta
[14] = Cmax in cynomolgus monkey at 6 mg/kg, po; type: ADME, organism-based, Macaca fascicularis; set-up: dose 6 mg/kg, route oral; settings: in vivo
[15] = Cmax in beagle dog at 1 mg/kg, po; type: ADME, organism-based, Canis lupus familiaris; set-up: dose 1 mg/kg, route oral; settings: in vivo
[16] = AUC in cynomolgus monkey at 6 mg/kg, po; type: ADME, organism-based, Macaca fascicularis; set-up: dose 6 mg/kg, route oral; settings: plasma
[17] = AUC in beagle dog at 1 mg/kg, po; type: ADME, organism-based, Canis lupus familiaris; set-up: dose 1 mg/kg, route oral; settings: plasma
[18] = Half life in cynomolgus monkey at 6 mg/kg, po; type: ADME, organism-based, Macaca fascicularis; set-up: dose 6 mg/kg, route oral; settings: in vivo
[19] = Half life in beagle dog at 1 mg/kg, po; type: ADME, organism-based, Canis lupus familiaris; set-up: dose 1 mg/kg, route oral; settings: in vivo
Canis familiaris = assay: Volume of distribution in beagle dog at 1 mg/kg, po; type: ADME, organism-based, Canis lupus familiaris; set-up: dose 1 mg/kg, route oral; settings: in vivo
Cynomolgus monkey = assay: Volume of distribution in cynomolgus monkey at 6 mg/kg, po; type: ADME, organism-based, Macaca fascicularis; set-up: dose 6 mg/kg, route oral; settings: in vivo
[20] = Plasma clearance in cynomolgus monkey at 6 mg/kg, po; type: ADME, organism-based, Macaca fascicularis; set-up: dose 6 mg/kg, route oral
[21] = Plasma clearance in beagle dog at 1 mg/kg, po; type: ADME, organism-based, Canis lupus familiaris; set-up: dose 1 mg/kg, route oral
[22] = Lipophilicity, log D of the compound; type: physicochemical; settings: octanol/water
[23] = Inhibition of CYP450 (unknown origin); type: ADME, Homo sapiens
[24] = target: T4, Free fatty acid receptor 4 (Homo sapiens) (UniProt Q5NUL3); assay: Agonist activity at GPR120 (unknown origin) up to 10 uM
T4 sequence (whole entry): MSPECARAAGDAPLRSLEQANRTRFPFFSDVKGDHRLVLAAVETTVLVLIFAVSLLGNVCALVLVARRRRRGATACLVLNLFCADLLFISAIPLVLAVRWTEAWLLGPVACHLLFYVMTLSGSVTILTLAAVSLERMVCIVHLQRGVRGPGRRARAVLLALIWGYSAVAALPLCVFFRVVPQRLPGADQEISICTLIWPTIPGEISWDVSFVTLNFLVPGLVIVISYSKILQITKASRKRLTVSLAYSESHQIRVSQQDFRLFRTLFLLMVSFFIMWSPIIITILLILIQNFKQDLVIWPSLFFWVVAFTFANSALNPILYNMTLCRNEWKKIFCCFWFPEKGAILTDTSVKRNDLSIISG

T1 sequence (O14842 whole entry): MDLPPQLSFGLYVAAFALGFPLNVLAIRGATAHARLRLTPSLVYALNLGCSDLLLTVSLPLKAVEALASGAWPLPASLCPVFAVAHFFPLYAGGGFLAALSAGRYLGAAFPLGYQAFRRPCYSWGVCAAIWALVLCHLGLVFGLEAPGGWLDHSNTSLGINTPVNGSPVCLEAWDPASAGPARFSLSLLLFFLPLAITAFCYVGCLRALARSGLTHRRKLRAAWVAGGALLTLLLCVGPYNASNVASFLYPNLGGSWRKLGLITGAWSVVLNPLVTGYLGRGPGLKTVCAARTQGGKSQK

## O=C(O)C[C@@H]1COc2cc3c(cc21)OC[C@H](c1cccc(C(F)(F)F)c1)O3
[1]
  Emax: 55.6%
[2]
  EC50: 30.4 nM

## Cc1cc(OCCCS(C)(=O)=O)cc(C)c1-c1cccc([C@@H]2COc3cc4c(cc3O2)OC[C@H]4CC(=O)O)c1
[1]
  Emax: 124%
[2]
  EC50: 55.9 nM

## O=C(O)C[C@@H]1COc2cc3c(cc21)OC[C@@H](c1ccc(Cl)c(Cl)c1)O3
[3]
  Emax: 46.8%
[4]
  Cmax: 18900 ng/mL
[5]
  AUC: 337 µg·h/mL
[6]
  half-life: 13.3 h
Rattus norvegicus
  Vd: 0.25 L/kg
[7]
  CL/F: 0.167 mL/min/kg
Mus musculus
  inhibition in vivo at 50 mg/kg: 4.9%
[1]
  Emax: 129%
[2]
  EC50: 16 nM

## O=C(O)C[C@@H]1COc2cc3c(cc21)OCC(c1cccc(-c2ccc(F)cc2Cl)c1)O3 (stereo partly specified)
[1]
  Emax: 103%
[2]
  EC50: 74.7 nM

## O=C(O)C[C@@H]1COc2cc3c(cc21)OC[C@@H](c1cccc(Cl)c1)O3
[8]
  Activity: inactive
[9]
  Activity: inactive
Rhesus monkey [10]
  inhibition in vivo at 6 mg/kg: 10.7%
Rhesus monkey [11]
  inhibition in vivo at 20 mg/kg: 13.2%
Rhesus monkey [12]
  inhibition in vivo at 6 mg/kg: 7.71%
Rhesus monkey [13]
  inhibition in vivo at 20 mg/kg: 16.4%
[3]
  Emax: 36.8%
[14]
  Cmax: 19700 ng/mL
[4]
  Cmax: 22000 ng/mL
[15]
  Cmax: 2670 ng/mL
[16]
  AUC: 126 µg·h/mL
[17]
  AUC: 35.6 µg·h/mL
[5]
  AUC: 666 µg·h/mL
[18]
  half-life: 12.9 h
[19]
  half-life: 21.1 h
[6]
  half-life: 27.5 h
Canis familiaris
  Vd: 0.71 L/kg
Cynomolgus monkey
  Vd: 0.85 L/kg
Rattus norvegicus
  Vd: 0.21 L/kg
[20]
  CL/F: 0.833 mL/min/kg
[21]
  CL/F: 0.333 mL/min/kg
[7]
  CL/F: 0.0833 mL/min/kg
Mus musculus
  inhibition in vivo at 50 mg/kg: 11%
[1]
  Emax: 87%
[2]
  EC50: 34.2 nM
[22]
  logD: < 3
[23]
  IC50: > 50000 nM
[24]
  Activity: inactive

## O=C(O)C[C@@H]1COc2cc3c(cc21)OCC(c1cccc(C2CC2)c1)O3 (stereo partly specified)
[1]
  Emax: 66%
[2]
  EC50: 36.4 nM

## O=C(O)C[C@@H]1COc2cc3c(cc21)OC[C@H](c1cccc(Br)c1)O3
[1]
  Emax: 105%
[2]
  EC50: 111 nM

## CS(=O)(=O)CCCOc1ccc(-c2cc(F)cc(C3COc4cc5c(cc4O3)OC[C@H]5CC(=O)O)c2)c(Cl)c1 (stereo partly specified)
[1]
  Emax: 69%
[2]
  EC50: 205 nM

## Cc1cccc(C)c1-c1cccc([C@H]2COc3cc4c(cc3O2)OC[C@H]4CC(=O)O)c1
[1]
  Emax: 72%
[2]
  EC50: 30.1 nM

## O=C(O)C[C@@H]1COc2cc3c(cc21)OC[C@H](c1ccc(Cl)c(Cl)c1)O3
[1]
  Emax: 61%
[2]
  EC50: 191 nM

## Cc1ccc(-c2cccc(C3COc4cc5c(cc4O3)OC[C@H]5CC(=O)O)c2)c(C)c1 (stereo partly specified)
[1]
  Emax: 90%
[2]
  EC50: 38.7 nM

## CS(=O)(=O)CCCOc1ccc(-c2cccc([C@@H]3COc4cc5c(cc4O3)OC[C@H]5CC(=O)O)c2)c(Cl)c1
[1]
  Emax: 89%
[2]
  EC50: 94.8 nM

## Cc1ccccc1-c1cccc([C@@H]2COc3cc4c(cc3O2)OC[C@H]4CC(=O)O)c1
[1]
  Emax: 76%
[2]
  EC50: 39.3 nM

## O=C(O)C[C@@H]1COc2cc3c(cc21)OCC(c1ccc(Br)cc1)O3 (stereo partly specified)
[1]
  Emax: 38%
[2]
  EC50: > 10000 nM

## Cc1cc(OCCCS(C)(=O)=O)c(F)c(C)c1-c1cccc([C@@H]2COc3cc4c(cc3O2)OC[C@H]4CC(=O)O)c1
[1]
  Emax: 83%
[2]
  EC50: 82.4 nM

## O=C(O)C[C@@H]1COc2cc3c(cc21)OCC(c1cccc(-c2ccccc2)c1)O3 (stereo partly specified)
[1]
  Emax: 105%
[2]
  EC50: 65.4 nM

## Cc1cccc(C)c1-c1cccc([C@@H]2COc3cc4c(cc3O2)OC[C@H]4CC(=O)O)c1
[1]
  Emax: 85%
[2]
  EC50: 52.9 nM

## Cc1cc(OCCCS(C)(=O)=O)c(F)c(C)c1-c1cccc([C@H]2COc3cc4c(cc3O2)OC[C@H]4CC(=O)O)c1
[1]
  Emax: 77%
[2]
  EC50: 121 nM

## O=C(O)C[C@@H]1COc2cc3c(cc21)OC[C@H](c1cccc(Cl)c1)O3
[1]
  Emax: 72%
[2]
  EC50: 220 nM
